Reference: patent US9408393B2, “Bismuth-thiols as antiseptics for agricultural, industrial and other uses” (Microbion Corporation, priority 2010, dated 2016)
Like-named read-outs stand apart in the source and are kept apart here.

How the values were obtained:
[1] = test system: S. epidermidis biofilm; assay: Biofilm prevention concentration (BPC), BisEDT and antibiotics; format: cell-based, Staphylococcus epidermidis; conditions: for Change of biofilm prevention concentration (BPC): 0.05 μg/ml BisEDT
Experimental: (§1) S. epidermidis grown in TSB+2% glucose in polystyrene plates for 48 h at 37° C. Gatifloxacin (GF), clindamycin (CM), minocycline (MC), gentamicin (GM), vancomycin (VM), cefazolin (CZ), nafcillin (NC), and rifampicin (RP). […]

[2] = test system: S. epidermidis; assay: Broth dilution MIC/MBC, BT-antibiotic combinations; format: cell-based, Staphylococcus epidermidis; conditions: for Δ, MIC / Δ (0.05 BE), MIC: 0.05 μg/ml BisEDT; for Δ (0.1 BE), MBC: 0.1 μg/ml BisEDT
Experimental: (§2) Materials & Methods. Susceptibility studies were performed by broth dilution in 96-well tissue culture plates (Nalge Nunc International, Denmark) in accordance with NCCLS protocols (National Committee for Clinical Laboratory Standards. (1997). Methods for Dilution Antimicrobial Susceptibility Tests for Bacteria that Grow Aerobically: Approved Standard M7-A2 and Informational Supplement M100-S10. NCCLS, Wayne, Pa., USA).
(§3) Briefly, overnight bacterial cultures were used to prepare 0.5 McFarland standard suspensions, which were further diluted 1:50 (˜2×10^6 cfu/mL) in cation-adjusted Mueller-Hinton broth medium (BBL, Cockeysville, Md., USA). BTs (prepared as described above) and antibiotics were added at incremental concentrations, keeping the final volume constant at 0.2 mL. Cultures were incubated for 24 h at 37° C. and turbidity was assessed by absorption at 630 nm using an ELISA plate reader (Biotek Instruments, Winooski, Vt., USA) according to the manufacturer's recommendations. […] Viable bacterial counts (cfu/mL) were determined by standard plating on nutrient agar.
(§4) The checkerboard method was used to assess the activity of antimicrobial combinations. The fractional inhibitory concentration index (FICI) and the fractional bactericidal concentration index (FBCI) were calculated, according to Eliopoulos et al. (Eliopoulos and Moellering, (1996) Antimicrobial combinations. In Antibiotics in Laboratory Medicine (Lorian, V., Ed.), pp. 330-96, Williams and Wilkins, Baltimore, Md., USA). Synergy was defined as an FICI or FBCI index of […], no interaction at >0.5-4 and antagonism at >4 (Odds, F C (2003) Synergy, antagonism, and what the chequerboard puts between them. Journal of Antimicrobial Chemotherapy 52:1). Synergy was also defined conventionally as ≧4-fold decrease in antibiotic concentration.

[3] = test system: S. epidermidis S2400-1 biofilm; assay: Biofilm prevention, BisEDT-antibiotic combinations; format: cell-based, Staphylococcus epidermidis; conditions: for Δ (0.05 BE), biofilm prevention: 0.05 μg/ml BisEDT
Experimental: as §1

[4] = test system: MRSA; assay: Combination MIC study, nafcillin or gentamicin + BisEDT, TSB with 2% glucose; format: cell-based, Staphylococcus aureus; conditions: for Fold reduction of antibiotic MIC90 by BisEDT: BisEDT 0.2 μg/ml; for FIC: antibiotic combined with BisEDT 0.2 μg/ml
From the text: BTs reversed the resistance of all four gentamicin-resistant isolates tested to clinically relevant concentrations [Domenico et al., 2002]. The MICs for these antimicrobial agents was reduced substantially, especially for gentamicin.

[5] = test system: S. epidermidis (methicillin-susceptible and methicillin-resistant); assay: Graft infection rat model, quantitative graft culture; format: in vivo; conditions: rats, s.c. Dacron graft, explanted at 7 days, 0.1 mg/l BTs, 10 mg/l RIP, 10 mg/l rifampin
Experimental: As summarized in Table 21, implants impregnated with 0.1 μg/ml BisEDT, 10 μg/ml RIP and 10 μg/ml rifampin, alone or combined were implanted s.c. into rats. Physiological solution (1 ml) containing the MS and MR strains at 2×10^7 cfu/ml was inoculated onto the graft surface using a tuberculin syringe. All grafts were explanted at 7 days following implantation and sonicated for 5 minutes in sterile saline solution to remove the adherent bacteria. Quantitation of viable bacteria was obtained by culturing dilutions on blood agar plates. The limit of detection was approximately 10 cfu/cm^2.

[6] = test system: S. epidermidis; assay: Growth inhibition (MIC) and MBC, BisEDT and antibiotics; format: cell-based, Staphylococcus epidermidis
From the text: Results are expressed as the mean change in MIC (dilution steps) with increasing BisEDT (n=3). See legend in FIG. 5 for antibiotic definitions.
The MIC change was most pronounced for clindamycin and gentamicin, followed by vancomycin, cefazolin, minocycline, gatifloxacin and nafcillin, with rifampicin unaffected.
Minimum bactericidal concentration (MBC) for most antibiotics tested against S. epidermidis decreased slightly with subMIC BisEDT. […] Clindamycin is a bacteriostatic agent, which explains its lack of bactericidal activity. Cefazolin resistance was reversed with respect to the MBC [Domenico et al., 2003]. These effects were additive.

[7] = test system: S. aureus; assay: Broth dilution MIC/MBC, BT-antibiotic combinations; format: cell-based, Staphylococcus aureus; conditions: for MIC: Staphylococcus aureus
Experimental: as §2, §3, §4

[8] = test system: MRSA clinical isolates; assay: Broth dilution MIC in BHIG/X medium with subMIC BisEDT; format: cell-based, Staphylococcus aureus; conditions: 12 MRSA clinical isolates, BHIG/X, mean ± SD
Experimental: (§5) Broth dilution antimicrobial susceptibility studies were performed against 12 MRSA strains using several antibiotics combined with subMIC levels of BisEDT (Table 18). Both the biofilm-prevention concentration (BPC) and the minimum inhibitory concentration (MIC) were determined in a special biofilm culture medium (BHIG/X). […] These strains were already sensitive to vancomycin, but were made considerably moreso in the presence of subMIC BisEDT.
In this particular study, the data indicated synergy between BisEDT and cefepime (FIC<0.5), with many of the isolates at the breakpoint for sensitivity.

[9] = test system: MRSA clinical isolates biofilm; assay: Biofilm-prevention concentration (BPC) in BHIG/X medium with subMIC BisEDT; format: cell-based, Staphylococcus aureus; conditions: 12 MRSA clinical isolates, mean ± SD
Experimental: as §5

[10] = test system: MRSA clinical isolates; conditions: cited from earlier work
[11] = test system: lawn of MRSA (Methicillin-resistant S. aureus); assay: Antibiotic-soaked discs on bacterial lawn with and without BisEDT; format: cell-based, Staphylococcus aureus; conditions: antibiotic discs combined with BisEDT 0.05 μg/ml
Experimental: FIGS. 4A and 4B show the subinhibitory BisEDT reversing antibiotic-resistance to several antibiotics. Effects of antibiotics with and without BisEDT (0.05 μg/ml) on a lawn of MRSA (Methicillin-resistant S. aureus) is shown. […] [GM=gentamicin, CZ=cefazolin, FEP=cefepime, IPM=imipenim, SAM=ampicillin/sulbactam, LVX=levofloxacin.

[12] = S. epidermidis ATCC 35984, BisEDT 0.0 μg/ml
[13] = S. epidermidis ATCC 35984, BisEDT 0.05 μg/ml
[14] = S. epidermidis S2400-1, BisEDT 0 μg/ml
[15] = S. epidermidis S2400-1, BisEDT 0.0 μg/ml
[16] = S. epidermidis S2400-1, BisEDT 0.05 μg/ml
[17] = S. epidermidis S2400-1, BisEDT 0.1 μg/ml
[18] = methicillin-resistant S. epidermidis
[19] = methicillin-susceptible S. epidermidis
[20] = S. aureus ATCC 25923, BE = 0.2 μg/ml BisEDT

## CCOc1ccc2ccccc2c1C(=O)N[C@@H]1C(=O)N2[C@@H]1SC(C)(C)[C@@H]2C(=O)O [Nafcillin]
[1]
  Change of biofilm prevention concentration (BPC): remained unaffected
[2]; S. epidermidis ATCC 35984
  Δ, MIC: 3.2
[2]; [12]
  MIC: 16.00 µg/mL
[2]; [13]
  MIC: 5.00 µg/mL
[2]; S. epidermidis S2400-1
  Δ (0.05 BE), MIC: 0.89
  Δ (0.1 BE), MBC: 2.00
[2]; [14]
  MIC: 171 µg/mL
[2]; [15]
  MBC: 256 µg/mL
[2]; [16]
  MIC: 192 µg/mL
[2]; [17]
  MBC: 128 µg/mL
  MIC: 68 µg/mL
[3]
  Δ (0.05 BE), biofilm prevention: 0.8
[3]; BisEDT 0 μg/ml
  Biofilm Prevention (antibiotic concentration): 48 µg/mL
[3]; BisEDT 0.05 μg/ml
  Biofilm Prevention (antibiotic concentration): 64 µg/mL
[3]; BisEDT 0.1 μg/ml
  Biofilm Prevention (antibiotic concentration): 8 µg/mL
[4]
  Fold reduction of antibiotic MIC90 by BisEDT: over 4 fold
  FIC: 0.74

## CO[C@H]1/C=C/O[C@@]2(C)Oc3c(C)c(O)c4c(O)c(c(/C=N/N5CCN(C)CC5)c(O)c4c3C2=O)NC(=O)/C(C)=C\C=C\[C@H](C)[C@H](O)[C@@H](C)[C@@H](O)[C@@H](C)[C@H](OC(C)=O)[C@@H]1C [Rifampin]
[1]
  Change of biofilm prevention concentration (BPC): remained unaffected
[2]; S. epidermidis ATCC 35984
  Δ, MIC: 1.5
[2]; [12]
  MIC: 0.021 µg/mL
[2]; [13]
  MIC: 0.014 µg/mL
[2]; S. epidermidis S2400-1
  Δ (0.05 BE), MIC: 0.75
  Δ (0.1 BE), MBC: 0.43
[2]; [14]
  MIC: 0.03 µg/mL
[2]; [15]
  MBC: 0.03 µg/mL
[2]; [16]
  MIC: 0.04 µg/mL
[2]; [17]
  MBC: 0.07 µg/mL
  MIC: 0.04 µg/mL
[3]
  Δ (0.05 BE), biofilm prevention: 0.7
[3]; BisEDT 0 μg/ml
  Biofilm Prevention (antibiotic concentration): 0.03 µg/mL
[3]; BisEDT 0.05 μg/ml
  Biofilm Prevention (antibiotic concentration): 0.04 µg/mL
[3]; BisEDT 0.1 μg/ml
  Biofilm Prevention (antibiotic concentration): 0.04 µg/mL
[5]; [18]
  Quantitative graft culture: 7.6 × 10^4 ± 2.1 × 10^4 cfu/cm^2
[5]; [19]
  Quantitative graft culture: 5.9 × 10^3 ± 1.8 × 10^3 cfu/cm^2
[6]
  Reduction in MBC with subMIC BisEDT: remained largely unaffected
[6]; 0.1 μg/ml (0.5 μM) BisEDT
  MIC change (growth inhibition) with BisEDT: unaffected
[7]; MRSA S2446-3, BE = 0.2 μg/ml BisEDT
  Δ: 1.0
[7]; [20]
  Synergy: + (Synergy was also defined conventionally as ≧4-fold decrease in antibiotic concentration)
  Δ: 13.0
[7]; ATCC25923, S. aureus ATCC 25923, antibiotic alone, read-out: MIC
  MIC: 0.033 µg/mL
[7]; ATCC25923, S. aureus ATCC 25923, with 0.2 μg/ml BisEDT, read-out: MIC + BE
  MIC: 0.003 µg/mL
[7]; MRSA, MRSA S2446-3, antibiotic alone, read-out: MIC
  MIC: 2.5 µg/mL
[7]; MRSA, MRSA S2446-3, with 0.2 μg/ml BisEDT, read-out: MIC + BE
  MIC: 2.5 µg/mL

## bismuth-1,2-ethanedithiol [BisEDT]
[5]; [18]
  Quantitative graft culture: 6.2 × 10^2 ± 2.3 × 10^2 cfu/cm^2
[5]; [19]
  Quantitative graft culture: 5.8 × 10^2 ± 0.9 × 10^2 cfu/cm^2

## gentamicin
[1]; TSB + 2% glucose, 48 h
  Fold reduction of BPC in presence of subMIC BisEDT: 4 fold
[2]; S. epidermidis ATCC 35984
  Δ, MIC: 13.3
[2]; [12]
  MIC: 213.33 µg/mL
[2]; [13]
  MIC: 16.00 µg/mL
[2]; S. epidermidis S2400-1
  Synergy, MBC: + (Synergy was also defined conventionally as ≧4-fold decrease in antibiotic concentration)
  Synergy, MIC: + (Synergy was also defined conventionally as ≧4-fold decrease in antibiotic concentration)
  Δ (0.05 BE), MIC: 6.40
  Δ (0.1 BE), MBC: 6.00
[2]; [14]
  MIC: 2048 µg/mL
[2]; [15]
  MBC: 1536 µg/mL
[2]; [16]
  MIC: 320 µg/mL
[2]; [17]
  MBC: 256 µg/mL
  MIC: 80 µg/mL
[3]
  Synergy, biofilm prevention: borderline
  Δ (0.05 BE), biofilm prevention: 3.9
[3]; BisEDT 0 μg/ml
  Biofilm Prevention (antibiotic concentration): 555 µg/mL
[3]; BisEDT 0.05 μg/ml
  Biofilm Prevention (antibiotic concentration): 144 µg/mL
[3]; BisEDT 0.1 μg/ml
  Biofilm Prevention (antibiotic concentration): 12 µg/mL
[8]; BisEDT 0 μg/mL
  MIC: 81 ± 40 µg/mL
[8]; BisEDT 0.025 μg/mL
  MIC: 60 ± 27 µg/mL
[8]; BisEDT 0.05 μg/mL
  MIC: 58 ± 30 µg/mL
[8]; BisEDT 0.1 μg/mL
  MIC: 48 ± 31 µg/mL
[9]; BisEDT 0 μg/mL
  BPC: 81 ± 41 µg/mL
[9]; BisEDT 0.025 μg/mL
  BPC: 63 ± 30 µg/mL
[9]; BisEDT 0.05 μg/mL
  BPC: 53 ± 31 µg/mL
[9]; BisEDT 0.1 μg/mL
  BPC: 33 ± 25 µg/mL
[10]; Standard MIC breakpoint for resistance
  MIC Standards, R (resistance): ≧16 μg/ml
[10]; Standard MIC breakpoint for sensitivity
  MIC Standards, S (antibiotic sensitivity): ≦4 μg/ml
[6]
  Reduction in MBC with subMIC BisEDT: 4- to 16 fold
[4]
  Fold reduction of antibiotic MIC90 by BisEDT: over 10 fold
  FIC: 0.6
[11]
  Antibiotic action on MRSA lawn with subMIC BisEDT: enhanced antibiotic action
